Test results as given in patent publication US5621102A, “Process for preparing enantiomerically pure xanthine derivatives” (Cell Therapeutics, Inc., priority 1995, dated 1997).
“And” between values parts separate entries of the source, which are not always exact repeats. Equal values may be shown once.

Assays:
[1] = system: TNF-α; assay: mouse plasma TNF-α ELISA after endotoxin; type: in vivo, mice
Experimental: Each point represents the average of two experiments compiled from the average of duplicate ELISA measurements with each experimental point representing pooled plasma from three mice.
For ELISA measurements of cytokine levels in plasma, blood was collected by retro-orbital or cardiac puncture of anesthetized mice, immediately centrifuged and the EDTA plasma stored at -70° C. Particulate free plasma was thawed on ice and cytokine levels determined utilizing commercial ELISA assays with normal mouse plasma used to generate standard curves. Murine tumor necrosis factor-α and interleukin-1α kits were purchased from Genzyme (Cambridge, Mass.) and Endogen (Boston, Mass.), respectively. Each data point was an average of two ELISA measurements made from EDTA serum pooled from three mice. The data summarized in Table 3 were compiled from two independent experiments; data from Table 4 and 5 were from single experiments of three mice per data point.
Levels of TNF-α, IL-1α and IL-6 were measured in the plasma of mice as a function of time following treatment with S. abortus endotoxin. […] TNF-α levels peaked within 1 hour of treatment of endotoxin (Table 4 and FIG. 6). Treatment of the mice with CT1501R decreased the levels of TNF-α in the EDTA plasma of endotoxin treated mice at all time points measured. […]

[2] = system: endotoxin induced lethality; assay: endotoxin induced lethality in mice (septic shock model); type: in vivo, Balb/c mice; conditions: for cumulative percent survival: 72 hours post LPS (LPS-only 7%); for survival (Number Surviving/Total): single experiments
Experimental: Animals were treated with 10 μg/gm of LPS (i.v.) Immediately following the LPS (t=0), 2 hrs after the LPS (t=2) or 4 hrs following LPS (t-4) the mice were treated with their first treatment of CT1501R (100 mg/kg, i.p.). The mice were treated with CT1501R three times per day thereafter, and animal survival was monitored.
This example illustrates the effect of CT1501R on survival in mice given a lethal dose of endotoxin. We determined if CT1501R protects against endotoxin induced lethality in a murine model. Septic shock was modeled by endotoxin injection of 6-8 week old female Balb/c mice similar to previously published reports (Ashkenazi et al. Proc. Natl. Acad. Sci. U.S.A. 88: 10535-10539, 1991) under protocols approved by the Animal Use Committee of the Biomembrane Institute, Seattle, Wash. Animals were injected intravaneously (i.v.) with an approximate LD100 dose (10 μg/g) of Salmonella abortus equi-derived endotoxin (Sigma Chemical Co., L-1887) in phosphate buffered saline (PBS). CT1501R at a dose of 100 μg/kg was injected intraperitoneally (IP) 3 times per day ([…]). Control mice were injected at the same times with a similar volume of vehicle control (PBS). Survival was followed for at least 72 hours.
Ten mice were treated each with PB S alone or CT 1501R alone on the same schedule as the experimental mice. […] Endotoxin survival data were summarized from a total of six (6) independent experiments. Summary Table 1 details the results of each of the six experiments. In FIG. 5, each time point represents a minimum of three (3) experiments comprising at least twenty (20) mice per group. A probability analysis of the survival data using a Fisher's Exact One Tailed Test is given as Table 3. Significant protection was conferred if CT1501R was administered immediately after the LPS treatment. The cumulative percent survival at 72 hours post LPS treatment was 60% compared to 7% for the LPS-only treated animals (p=<0.0005; Table 3).

[3] = system: PBMC (peripheral blood mononuclear cells); assay: two-way mixed lymphocyte reaction (MLR); type: cell-based, human
Source text: Various in vitro assays can be used to measure effects of the inventive compounds to module immune activity and have antitumor activity using a variety of cellular types. For example, a mixed lymphocyte reaction (MLR) provides a valuable screening tool to determine biological activity of each inventive compound. In the MLR, PBMCs (peripheral blood mononuclear cells) are obtained by drawing whole blood from healthy volunteers in a heparinized container and diluted with an equal volume of hanks balanced salt solution (HBSS). This mixture is layered on a sucrose density gradient, such as a Ficoll-Hypaque® gradient (specific gravity 1.08), and centrifuged at 1000×g for 25 minutes at room temperature or cooler. PBMC are obtained from a band at a plasma-Ficoll interface, separated and washed at least twice in a saline solution, such as HBSS. Contaminating red cells are lysed, such as by ACK lysis for 10 min at 37° C., and the PBMCs are washed twice in HBSS. The pellet of purified PBMCs is resuspended in complete medium, such as RPMI 1640 plus 20% human inactivated serum. Proliferative response of PBMC to allogeneic stimulation is determined in a two-way MLR performed in a 96-well microliter plate. […] At the conclusion of the incubation tritiated thymidine is added (for example, 1 μCi/well of 40 to 60 Ci/mmole) and proliferation determined by liquid scintillation counting. […]

## C[C@@H](O)CCCCn1c(=O)c2c(ncn2C)n(C)c1=O [CT1501R, (R)-1-(5-hydroxyhexyl)-3,7-dimethylxanthine]
[1]; 0.5 hour post endotoxin
  decrease of peak plasma TNF-α vs endotoxin only: 2.5 fold
[1]; 1 hour post endotoxin
  decrease of peak plasma TNF-α vs endotoxin only: 2.6 fold
[2]; CT1501R four hours after LPS
  cumulative percent survival: 37%
[2]; CT1501R immediately after LPS
  cumulative percent survival: 60%
[2]; CT1501R two hours after LPS
  cumulative percent survival: 55%
[2]; drug given approximately simultaneously with or two hours following lethal LPS
  survival compared with published results for Genentech's bifunctional TNF receptor: consistently was better at improving survival than Genentech's TNF receptor
[2]; first CT-1501R dose t = 0 Hr post LPS, 24 Hr post LPS
  survival (Number Surviving/Total): 4/5 and 5/5 and 9/10
[2]; first CT-1501R dose t = 0 Hr post LPS, 48 Hr post LPS
  survival (Number Surviving/Total): 4/5 and 5/5 and 7/10
[2]; first CT-1501R dose t = 0 Hr post LPS, 72 Hr post LPS
  survival (Number Surviving/Total): 4/5 and 5/5 and 3/10
[2]; first CT-1501R dose t = 2 Hr post LPS, 24 Hr post LPS
  survival (Number Surviving/Total): 4/5 and 5/5 and 5/10
[2]; first CT-1501R dose t = 2 Hr post LPS, 48 Hr post LPS
  survival (Number Surviving/Total): 3/5 and 5/5 and 3/10
[2]; first CT-1501R dose t = 2 Hr post LPS, 72 Hr post LPS
  survival (Number Surviving/Total): 3/5 and 5/5 and 3/10
[2]; first CT-1501R dose t = 4 Hr post LPS, 24 Hr post LPS
  survival (Number Surviving/Total): 5/5 and 7/10 and 3/10
[2]; first CT-1501R dose t = 4 Hr post LPS, 48 Hr post LPS
  survival (Number Surviving/Total): 3/5 and 5/10 and 4/10 and 3/10
[2]; first CT-1501R dose t = 4 Hr post LPS, 72 Hr post LPS
  survival (Number Surviving/Total): 3/5 and 5/10 and 2/10 and 3/10
[2]; ten mice, same schedule as the experimental mice
  adverse effects, drug alone without endotoxin: no adverse effects noted
[3]
  proliferative response of PBMC to allogeneic stimulation: showed dose-response activity
